In brackets after ≈: the same amount, converted by molar mass. Blank lines part the entries; values can stand above or below the compound they belong to.
Experiments:
[1] = Anticancer activity against human PMNL assessed as cell growth inhibition; format: functional, cell-based
[2] = system: Pichia kudriavzevii; experiment: Antifungal activity against Candida krusei assessed as fungal growth inhibition incubated for 24 to 48 hrs by microdilution method; format: functional; conditions: time 24-48 hrs
[3] = system: Human alphaherpesvirus 1; experiment: Antiviral activity against Herpes simplex virus 1infected in A549 cells assessed as viral growth inhibition incubated for 1 hrs; format: functional
[4] = system: Encephalomyocarditis virus; experiment: Antiviral activity against Encephalomyocarditis virus infected in A549 cells assessed as viral growth inhibition incubated for 1 hrs; format: functional, organism-based; conditions: Cardiovirus A, A549, 1 h
[5] = system: WM-115; experiment: Anticancer activity against human WM-115 cells assessed as cell growth inhibition incubated for 72 hrs by MTT assay; format: functional
[6] = Anticancer activity against human WM35 cells assessed as cell growth inhibition incubated for 72 hrs by MTS assay; format: functional, cell-based; conditions: WM35, 72 h, pooled result: one value given for 4 cell lines, strains, targets or settings
[7] = system: MDA-MB-231; experiment: Anticancer activity against human MDA-MB-231 cells assessed as cell growth inhibition incubated for 72 hrs by MTT assay; format: functional, cell-based; conditions: MDA-MB-231, 72 h
[8] = system: MCF7; experiment: Anticancer activity against human MCF7 cells assessed as cell growth inhibition incubated for 72 hrs by MTT assay; format: functional, cell-based; conditions: MCF7, 72 h
[9] = system: Calu-1; experiment: Anticancer activity against human HTB-54 cells assessed as cell growth inhibition incubated for 48 hrs by MTT assay; format: functional, cell-based; conditions: Calu-1, 48 h
[10] = system: NCI-H1299; experiment: Anticancer activity against human H1299 cells assessed as cell growth inhibition incubated for 48 hrs by MTT assay; format: functional, cell-based; conditions: NCI-H1299, 48 h
[11] = system: PC-3M; experiment: Anticancer activity against human PC-3M cells assessed as cell growth inhibition incubated for 24 hrs by MTT assay; format: functional, cell-based
[12] = system: MCF7; experiment: Anticancer activity against human MCF7 cells assessed as cell growth inhibition incubated for 72 hrs by fluorescence based MTT assay; format: functional; conditions: MCF7, 72 h
[13] = system: HepG2; experiment: Anticancer activity against human HepG2 cells assessed as cell growth inhibition incubated for 72 hrs by fluorescence based MTT assay; format: functional; conditions: HepG2, 72 h
[14] = system: A-375; experiment: Anticancer activity against human A-375 cells assessed as cell growth inhibition incubated for 72 hrs by fluorescence based MTT assay; format: functional; conditions: A-375, 72 h
[15] = system: MCF7; experiment: Anticancer activity against human MCF7 cells assessed as cell growth inhibition incubated for 48 hrs by MTT assay; format: functional, cell-based; conditions: MCF7, 48 h
[16] = system: Candida albicans; experiment: Antifungal activity against Candida albicans ATC90028 assessed as zone of inhibition; format: functional
[17] = system: Candida albicans; experiment: Antifungal activity against Candida albicans ATC90028 assessed as […] growth inhibition; format: functional
[18] = system: LNCaP; experiment: Anticancer activity against human LNCaP cells assessed as cell growth inhibition incubated for 1.5 hrs by MTT assay; format: functional, cell-based
[19] = system: LNCaP C4-2; experiment: Anticancer activity against human LNCaP C4-2 cells assessed as cell growth inhibition incubated for 24 hrs by MTT assay; format: functional, cell-based; conditions: LNCaP C4-2, 24 h
[20] = system: EJ; experiment: Anticancer activity against human EJ cells assessed as cell growth inhibition incubated for 72 hrs by MTT assay; format: functional, cell-based
[21] = system: MCF7; experiment: Anticancer activity against human MCF7 cells assessed as cell growth incubation incubated for 72 hrs by MTT assay; format: functional, cell-based; conditions: MCF7, 72 h
[22] = system: PC-3; experiment: Anticancer activity against human PC-3 cells assessed as cell growth incubation incubated for 72 hrs by MTT assay; format: functional, cell-based; conditions: PC-3, 72 h
[23] = system: LS174T; experiment: Anticancer activity against human LS174T cells assessed as cell growth inhibition incubated for 48 hrs by MTT assay; format: functional, cell-based
[24] = system: HeLa; experiment: Anticancer activity against human HeLa cells assessed as cell growth inhibition incubated for 48 hrs; format: functional, cell-based
[25] = system: HeLa; experiment: Anticancer activity against human HeLa cells assessed as cell growth inhibition incubated for 48 hrs by MTT assay; format: functional, cell-based
[26] = system: MDA-MB-361; experiment: Anticancer activity against human MDA-MB-361 cells assessed as cell growth inhibition incubated for 48 hrs by MTT assay; format: functional, cell-based; conditions: MDA-MB-361, 48 h
[27] = system: K562; experiment: Anticancer activity against human K562 cells assessed as cell growth inhibition incubated for 48 hrs by MTT assay; format: functional, cell-based; conditions: K562, 48 h
[28] = system: A549; experiment: Anticancer activity against human A549 cells assessed as cell growth inhibition measured after 6 days by SRB assay; format: functional, cell-based; conditions: A549, 144 h
[29] = system: UACC-375; experiment: Anticancer activity against human UACC-375 cells assessed as cell growth inhibition measured after 6 days by SRB assay; format: functional, cell-based
[30] = system: Plasmodium falciparum; experiment: […] inhibition incubated for 72 hrs by light microscopic analysis; format: functional, organism-based; conditions: K-1, 72 h
[31] = system: HT-29; experiment: Anticancer activity against human HT-29 cells assessed as cell growth inhibition measured after 6 days by SRB assay; format: functional, cell-based; conditions: HT-29, 144 h
[32] = system: DU-145; experiment: Anticancer activity against human DU-145 cells assessed as cell growth inhibition measured after 6 days by SRB assay; format: functional, cell-based; conditions: DU-145, 144 h
[33] = system: MCF7S; experiment: Anticancer activity against human MCF7S cells assessed as cell growth inhibition measured after 6 days by SRB assay; format: functional; conditions: time 6 day
[34] = system: MCF7; experiment: Anticancer activity against human MCF7 cells assessed as cell growth inhibition incubated for 24 hrs by ELISA based CCK8 assay; format: functional; conditions: MCF7, 24 h

SMILES: NC(=[Se])N1CCCC1
IC50 [1]: 6.5 µM

SMILES: COc1ccc(-c2c[se]c(NN=C3CCSCC3)n2)cc1
MIC [2]: 3.91 µg/mL (≈ 10.7 µM)

SMILES: O=c1c2ccccc2[se]n1Cc1ccccc1
MIC [3]: 2 µg/mL (≈ 6.94 µM)
IC50 [4]: 6 µg/mL (≈ 20.8 µM)

SMILES: N#C[Se]CCCCCC(=O)Nc1ccccc1
IC5 [5]: 0.8 µM

SMILES: Cc1ccc(-c2cc(C(F)(F)F)nn2-c2ccc(S(N)(=O)=O)cc2)cc1 [CELECOXIB]
IC50 [6]: 55.6 µM

SMILES: Cc1ccc2nc(-c3ccc4n[se]nc4c3)[nH]c2c1
IC50 [7]: 1 µM
IC50 [8]: 4.1 µM

SMILES: Cc1ccc(NC(=[Se])NC(=O)c2ccc3c(c2)OCO3)cc1
IC50 [9]: 5.9 µM
IC50 [10]: 1.5 µM

SMILES: N#C[Se]Cc1cc(-c2ccccc2)n(-c2ccc(S(N)(=O)=O)cc2)n1
IC50 [11]: 5 µM

SMILES: Ic1ccc(-c2c[se]c(NN=C3CCSCC3)n2)cc1
MIC [2]: 0.98 µg/mL (≈ 2.12 µM)

SMILES: FC(F)(F)c1ccc(-c2c[se]c(NN=C3CCSCC3)n2)cc1
MIC [2]: 0.98 µg/mL (≈ 2.42 µM)

SMILES: Brc1ccc2nc(-c3ccc4n[se]nc4c3)[nH]c2c1
IC50 [7]: 1.3 µM
IC50 [8]: 15.5 µM

SMILES: O=c1[nH]c(=O)c2n[se]nc2[nH]1
IC50 [12]: 46 µM
IC50 [13]: 19.6 µM
IC50 [14]: 14.3 µM

SMILES: CCNCc1ccccc1[Se][Se]c1ccccc1CNCC
IC50 [15]: 15 µM

MIC [17]: 12.5 µg/mL (≈ 26.9 µM)
SMILES: O=C(C[C@@H](c1ccc(Cl)cc1)[C@@H]1CCCc2[se]nnc21)c1ccc(Cl)cc1
inhibition zone (IZ) [16]: 15 mm

SMILES: N#C[Se]Cc1ccc(C[Se]C#N)cc1
IC50 [18]: 7 µM
IC50 [19]: 7.6 µM

SMILES: COc1ccc(-c2nc3ccc(-c4ccc5n[se]nc5c4)cc3[nH]2)cc1
IC50 [20]: 1.48 µM

SMILES: O=C(O)C[Se]C(=O)c1cccnc1Cl
IC50 [21]: 0.003 µM
IC50 [22]: 10 µM

SMILES: N#Cc1ccc(C(=O)[Se]CC(=O)O)cc1
IC50 [22]: 10 µM

SMILES: CN(C)C(N)=[Se]
IC50 [1]: 6.8 µM

SMILES: NC(=[Se])N/N=C/c1cccc2cccnc12
IC50 [23]: 14.4 µM
IC50 [24]: 6.6 µM
IC50 [25]: 9.2 µM
IC50 [26]: 9.2 µM
IC50 [27]: 4 µM

SMILES: Clc1ccc2nc(-c3ccc4n[se]nc4c3)[nH]c2c1
IC50 [7]: 2.1 µM
IC50 [8]: 26.3 µM

IC50 [28]: 65 µM
IC50 [31]: 130 µM
IC50 [32]: 40 µM
SMILES: C[Se]CC[C@H](N)C(=O)O [SELENOMETHIONINE]
IC50 ([29]; Homo sapiens, UACC-375, 144 h): 50 µM
IC5 ([29]; time 6 day): 50 µM
IC50 [30]: 45 µM
IC5 [33]: 45 µM

MIC [17]: 12.5 µg/mL (≈ 28.2 µM)
SMILES: Cc1ccc(C(=O)C[C@@H](c2ccc(Cl)cc2)[C@@H]2CCCc3[se]nnc32)cc1
inhibition zone (IZ) [16]: 17 mm

SMILES: Clc1ccc([Se][Se]c2ccc(Cl)nn2)nn1
IC50 [34]: 10.3 µM

SMILES: COc1cc(OC)cc(C(=O)[Se]CC(=O)O)c1
IC50 [22]: 4 µM

Reference: ChEMBL document CHEMBL5236550, “Small molecule selenium-containing compounds: Recent development and therapeutic applications” (Eur J Med Chem, 2021)
